Patent publication US4916145A, “Substituted n-[(pyridyl)alkyl]aryl-carboxamide” (Hoffmann-La Roche Inc., priority 1987, dated 1990)

How the values were obtained:
[1] = target: T1, PAF binding, dog platelets (Canis lupus familiaris, UniProt A0A8I3NSH0); assay: PAF Binding Assay (3H-PAF binding to washed dog platelets); settings: 10 minutes at room temperature
T1 sequence (A0A8I3NSH0 1-343): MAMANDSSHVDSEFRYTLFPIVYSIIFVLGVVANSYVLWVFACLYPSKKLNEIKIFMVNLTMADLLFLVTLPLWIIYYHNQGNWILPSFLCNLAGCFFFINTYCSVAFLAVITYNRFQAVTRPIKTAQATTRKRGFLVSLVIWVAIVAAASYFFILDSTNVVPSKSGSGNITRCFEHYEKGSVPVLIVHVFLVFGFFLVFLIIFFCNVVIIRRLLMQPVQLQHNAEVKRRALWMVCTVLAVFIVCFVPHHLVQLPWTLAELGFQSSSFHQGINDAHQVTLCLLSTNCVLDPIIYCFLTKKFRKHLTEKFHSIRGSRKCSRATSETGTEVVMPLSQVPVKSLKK
Protocol: The binding assay was performed in 400 μl polyethylene microcentrifuge tubes (Beckman) containing 50 μl of an oil mixture of 2 parts Siliconol AR200 (Serva): 1 part Silicone Fluid (Arthur H. Thomas). Buffer, standards, or analogs 150 μl total volume) were added to the tubes. Radiolabelled ^3 H-PAF (50 μl) was then added to the tubes. The reaction was started by the addition of 50 μl of dog platelets (2×10^7 platelets). The tubes were capped, inverted several times to mix, and incubated for 10 minutes at room temperature. The platelets were separated from the incubation mixture by centrifuging 1 minute in a Beckman Microfuge B centrifuge. The tip of the microfuge tube was cut off, and the platelets were washed out of the tip with 200 μl of 50% methanol (Burdick and Jackson). Aquasol (NEN, 10 ml) was added and the radioactivity in the samples was determined using an LS 8100 Beckman liquid scintillation counter linked to a Techtran tape recorder. Data was processed through an in-house computer system. Alternatively, radioactivity was determined using a Searle Mark III liquid scintillation counter linked to a Iso-Data microprocessor.
Blood was collected from anesthesized or unanesthesized dogs into 5ml plastic centrifuge tubes containing 3.8% sodium citrate as the anticoagulant (1 volume of citrate/9 volumes of blood). The red cells were removed by centrifugation for 15 minutes at 600 rpm (100-125 g) at room temperature. An aliquot of the supernatant platelet rich Plasma (PRP) was saved for cell counting and the remainder was acidified to pH 6.5 with 0.15M citric acid. The platelet pellet was obtained after a 10 minute centrifugation at 2000 rpm (1000 g) at room temperature. Washed platelets were prepared by resuspending the platelet pellet once with PBS containing 1 mM EDTA, centrifuging as noted, and then resuspending the platelets in 0.1% BSA-PBS. An aliquot of the washed platelets was counted, platelets used for binding assays were diluted to 2×10^7 platelets/assay tube (4×10^8 platelets/ml).

[2] = target: T2, Thromboxane Synthase (TXA2 Syn.) (Homo sapiens, UniProt P24557); assay: TXA2 Synthesis Inhibition (thromboxane synthase, microsomal fractions from human platelets); assay type: biochemical; settings: human platelet microsomes, 10 μM 14C-PGH2, 22°, 2 minutes
T2 construct: microsomal fractions from human platelets as enzyme source; from tissue; host or cells: microsomal fractions from human platelets
T2 sequence (P24557 1-533): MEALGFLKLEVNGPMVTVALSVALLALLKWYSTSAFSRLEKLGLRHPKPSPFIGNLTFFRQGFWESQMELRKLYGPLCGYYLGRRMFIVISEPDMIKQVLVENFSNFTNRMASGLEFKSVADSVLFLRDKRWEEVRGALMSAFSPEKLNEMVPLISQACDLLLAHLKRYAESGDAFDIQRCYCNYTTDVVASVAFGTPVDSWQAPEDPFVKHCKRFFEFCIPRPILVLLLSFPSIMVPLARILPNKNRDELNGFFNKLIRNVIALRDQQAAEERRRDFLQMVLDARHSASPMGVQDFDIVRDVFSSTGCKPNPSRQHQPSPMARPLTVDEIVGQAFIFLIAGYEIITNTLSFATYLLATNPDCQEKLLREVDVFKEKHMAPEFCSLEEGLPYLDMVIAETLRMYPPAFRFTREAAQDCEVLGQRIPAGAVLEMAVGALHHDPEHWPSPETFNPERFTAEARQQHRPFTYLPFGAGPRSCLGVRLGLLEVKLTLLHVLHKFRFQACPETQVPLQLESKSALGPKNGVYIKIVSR
Protocol: Thromboxane synthase inhibitory activity is measured by following the conversion of ^14 C-[…] using microsomal fractions from human platelets as enzyme source. In the aqueous incubation medium. The TXA2 decomposes rapidly into TXB2 . The amount of TXA2 syn. is adjusted so that under the conditions of the assay approximately 80-90% of the substrate. PGH2, is converted to product in control tubes. To prepare ^14 C-PGH2, ^14 C-AA(50-60mCi/mmole; Rose Chem.) is incubated with sheep seminal vesicular gland microsomes for 1.5 min. at 37° and then the ^14 C-PGH2 is extracted with diethylether, purified on columns of Sephadex LH-20 or silicic acid, and stored in acetone at -70° C. Incubations are done as follows. Sufficient ^14 C-PGH2 to yield a final substrate concentration of 10 μM ( 30,000 cpm) is added to the incubation tubes and then the acetone is removed under nitrogen. The tubes are placed in an ice bath and then 215 μl of ice cold phosphate buffered saline, 10 μof ethanol (control) or of test drug in ethanol, and 25 μl of the microsomal suspension are added with mixing in that order as rapidly as possible. The tubes are incubated at 22° for 2 minutes, the reaction is stopped and then the radioactive products and the unconverted PGH2 are extracted and analyzed by thin layer chromatography. The amount of ^14 C-PGH2 converted to products is analyzed by thin layer chromatography. The amount of ^14 C-PGH2 converted to products was used as a measure of TXA synthase activity. Inhibitors were tested initially at a concentration of 100 μM.

[3] = tested on: PAF-Induced Platelet Count Decrease; assay: PAF-Induced Platelet Count Decrease; assay type: in vivo, guinea pig; settings: for inhibition in vivo at 3 mg/kg: Cavia porcellus, Platelet, 0.25 h, iv, 15 minutes pretreatment time, read-out: PAF-Induced Platelet Count Decrease % Inhibition, i.v.
Protocol: Male Hartley guinea pigs weighing between 500 and 900 grams were fed standard guinea pig chow and tap water ad libitum. PAF was solubilized in ethanol and stored as a 2 mM stock solution at -70° C. The stock solution of PAF was diluted to […] in Tris buffer pH 7.4 and 0.1% BSA for all experiments.
Guinea pigs were anesthetized with urethane (1.6 g/kg, i.p.). A catheter (PE50) was introduced into the right carotid artery for withdrawing blood. A second catheter PE10) was introduced into the jugular vein for injecting drugs and for administering the PAF challenge (75 ng/kg, i.v.). A control blood sample was obtained and platelets were counted in a whole blood platelet analyzer. PAF was then given and blood samples were taken 15, 30, and 60 seconds after the challenge for platelet counts. Fifteen minutes later, selected concentrations of the test compound were solubilized in DMSO and injected intravenously into a group of 4-6 animals. Only one concentration of the test drug was used in each animal group. Fifteen minutes after drug injection, blood samples were taken before and 15, 30, and 60 sec after the PAF challenge, and analyzed for platelet number.
Animals were anesthetized with sodium pentobarbital (35 mg/kg. i.p.) and the carotid artery and jugular vein were cannulated as described above. The cannulae were exteriorized at the base of the neck and the animals were allowed to recover. Conscious, unrestrained guinea pigs which were allowed to recover from surgery for at least 18 hours were used in the experiments. The animals were challenged two times with PAF (120 ng/kg, i.v.); the first to establish a consistent response to PAF and the second to serve as a control from the PAF challenge. Blood samples were taken before and 15, 30, and 45 seconds after PAF challenge and platelets were counted. Thirty minutes after the control PAF challenge, the animals were orally dosed with either gum acacia or the test compound. Animals were then challenged with PAF at 1, 3, 5, and 24 hours after the administration of the drug.
The % change, i.e., the difference in platelet number before and after PAF challenge was calculated by: [formula] The % activity of drug was then determined by
Statistical significance (p≤0.05) of the difference between the mean PAF control and mean drug treated activity was determined with the pared Students's t-test.

[4] = tested on: PAF-Induced Bronchoconstriction; assay: PAF-Induced Bronchoconstriction Assay; assay type: in vivo, guinea pig; settings: Cavia porcellus; for inhibition in vivo at 1 mg/kg: 1 min, 1 mg/kg iv, 1 minute pretreatment; for inhibition in vivo at 50 mg/kg: po, 2 hours pretreatment
Protocol: The in vivo ability of compounds to inhibit PAF-induced bronchoconstriction in guinea pigs was assessed by the intravenous and oral routes of administration. The intravenous technique utilized male guinea pigs (Hartley strain, Charles River) weighing 400-600 g. Animals were anesthetized with urethane (2 g/kg) intraperitoneally and a polyethylene cannula was inserted into the jugular vein for intravenous drug administration. Tracheal pressure ([…]) was recorded from a Statham pressure transducer (P 32 AA). Propranolol was administered 5 minutes prior to challenge with PAF. Two minutes later spontaneous breathing was arrested with succinylcholine chloride (1.2 mg/kg) administered intravenously, and the animals were ventilated with a Harvard (Model 680) small animal respirator set at 40 breaths/min and 4.0 cc stroke volume. Control vehicle or test drug was administered through the cannula into the jugular vein 1 minute before the animals were challenged with a maximum constrictory dose of PAF (1.0 μg/kg) given intravenously. The change in tracheal pressure was averaged for four control and four drug-treated animals and percent inhibition was calculated.
For determination of oral activity, animals were dosed with test compound or vehicle two hours prior to challenge with PAF (1.0 μg/kg, i.v.).
The change in tracheal pressure is determined by subtracting the steady state baseline achieved after administration of succinylcholine from the peak bronchoconstriction seen after challenge with PAF. The mean change in tracheal pressure is calculated for each test compound and compared to the mean change in tracheal pressure for the control animals to give the percent inhibition of bronchoconstriction. The standard error is calculated as the standard error of the mean.

[5] = tested on: PAF-Induced Platelet Count Decrease; assay: PAF-Induced Platelet Count Decrease; assay type: in vivo, guinea pig; settings: 30 mg/kg, 2 hours, pretreatment

IC50 [1] [nM]	IC50 [2] [nM]	SMILES	inhibition in vivo at 3 mg/kg [3] [%]	inhibition in vivo at 1 mg/kg [4] [%]	inhibition in vivo at 50 mg/kg [4] [%]	PAF-Induced Platelet Count Decrease % Inhibition, po [5] [%]	PAF-Induced Platelet Count Decrease % Inhibition, po ([3]; 100 mg/kg, po, 3 hours, pretreatment) [%]
200	100 to 1000	Cc1ccc(-c2ccc(C(=O)NC(C)CCCc3cccnc3)cc2)cc1C (racemic) [(rac.)-3',4'-Dimethyl-N-[1-methyl-4-(3-pyridinyl)butyl][1,1'-biphenyl]-4-carboxamide]	12				
120	100 to 1000	COc1cccc(-c2ccc(C(=S)NC(C)CCCc3cccnc3)cc2)c1 (racemic) [(rac.)-3'-Methoxy-N-(1-methyl-4-(3-pyridinyl)butyl][1,1'-biphenyl]-4-carbothioamide]	6	16 ± 14			
60	100 to 1000	COc1ccc(-c2ccc(C(=S)NC(C)CCCc3cccnc3)cc2)cc1OC (racemic) [rac.-3',4'-Dimethoxy-N-[1-methyl-4-(3-pyridinyl)butyl][1,1'-biphenyl]-4-carbothioamide]	24	86 ± 7	37 ± 9	48	
110		Cc1ccc(-c2ccc(C(=S)NC(C)CCCc3cccnc3)cc2)cc1C (racemic) [rac.-3',4'-Dimethyl-N-[1-methyl-4-(3-pyridinyl)butyl][1,1'-biphenyl]-4-carbothioamide]	28	4 ± 4			
	225	COc1ccc(-c2ccc(C(=S)NCCCCc3cccnc3)cc2)cc1OC [3',4'-Dimethoxy-N-[4-(3-pyridinyl)butyl][1,1'-biphenyl]-4-carbothioamide]	15				53
700	125	Cc1ccc(-c2ccc(C(=O)NCCCCc3cccnc3)cc2)cc1C [3',4'-Dimethyl-N-[4-(3-pyridinyl)butyl][1,1-biphenyl]-4-carboxamide]					
450	600	Cc1ccc(-c2ccc(C(=O)NCCCCCCc3cccnc3)cc2)cc1C [3',4'-Dimethyl-N-[6-(3-pyridinyl)hexyl][1,1'-biphenyl]-4-carboxamide]	27				
60		COc1ccc(-c2cc(C)c(C(=O)NCCCCc3cccnc3)c(C)c2)cc1OC [3',4'Dimethoxy-3,5-dimethyl-N-[4-(3-pyridinyl)butyl][1,1'-biphenyl]-4-carboxamide]	14	17 ± 11			
300	< 100	O=C(NCCCCc1cccnc1)c1ccc(-c2cccc(O)c2)cc1 [3'-Hydroxy-N-[4-(3-pyridinyl)-butyl][1,1'-biphenyl]-4-carboxamide]					
280	25	COc1cccc(-c2ccc(C(=O)NCCCCc3cccnc3)cc2)c1 [3'-Methoxy-N-[4-(3-pyridinyl)butyl][1,1'-biphenyl]-4-carboxamide]		70 ± 10	55 ± 17		
800	> 1000	Cc1ccc(-c2ccc(-c3nnnn3CCCCc3cccnc3)cc2)cc1C [3-[4-[5-(3',4'-Dimethyl-[1,1'-biphenyl]-4-yl)-1H-tetrazol-1-yl]butyl]pyridine]		57 ± 4			
200	100 to 1000	Cc1ccc(-c2ccc(-c3nnnn3CCCCCCc3cccnc3)cc2)cc1C [3-[6-[5-(3',4'-Dimethyl-[1,1'-biphenyl]-4-yl)-1H-tetrazol-1-yl]hexyl]pyridine]	0	18 ± 13			
20		COc1cccc(-c2ccc(C(=O)N[C@H](C)CCCc3cccnc3)cc2)c1 [(R)-3'-Methoxy-N-[1-methyl-4-(3-pyridinyl)butyl]-[1,1'-biphenyl]-4-carboxamide]	17				
	100	O=C(NCCCCc1cccnc1)c1ccc(-c2ccccc2)cc1 [N-[4-(3-Pyridinyl)butyl]-[1,1'-biphenyl]-4-carboxamide]		42 ± 7			
